Values of other authors, collected in patent US20260232589A1, “NANOPREPARATIONS LOADED WITH TRABECTEDIN AND PACLITAXEL” (SHANGHAI JIAO TONG UNIVERSITY, priority 2023, published 2026).

Test system: Ly6Chi monocytes
Settings: literature reports, after trabectedin administration

SMILES: COc1cc2c(cc1O)CCN[C@]21CS[C@@H]2c3c(OC(C)=O)c(C)c4c(c3[C@H](COC1=O)N1[C@@H]2[C@H]2c3c(cc(C)c(OC)c3O)C[C@@H]([C@@H]1O)N2C)OCO4 [trabectedin]
- number of Ly6Chi monocytes in the peripheral blood of mice: decreases
